According to article PMC7383931, “Novel Thienopyrimidine Inhibitors of Leishmania N-Myristoyltransferase with On-Target Activity in Intracellular Amastigotes” (Journal of Medicinal Chemistry, 2020):
Values joined by “and” are separate entries in the source; they are usually repeats but may differ in a detail not shown here. Equal entries are not always repeated. Where two headings read alike, the source gives them in different places.

Columns and labels:
[1] = tested on: bone-marrow-derived macrophages (BMDM); assay: Alamar blue-based assay, macrophage toxicity; type: cell-based, BALB/c mice; conditions: for BMDM TC50: toxicity against bone marrow derived macrophages; for Alamar Blue Assay nAUC: toxicity against bone-marrow-derived macrophages, normalized area under the curve
Description: . Due to the steep slope of the toxicity profile and the correspondingly low accuracy of the CC50 values, the normalized area under the curve (nAUC) was used as the toxicity parameter (Figure 6A). […].
Macrophages (BMDM) were differentiated from the bone marrow of 6–8 week old female BALB/c mice, as described previously,[37] and maintained at 37 °C and 5% CO2 in DMEM (GIBCO) supplemented with 4 mM L-glutamine (GIBCO) and 4% L929-cell-conditioned medium. BMDMs were seeded at 4.2 × 10^4 cells per well in 96-well plates and adhered for at least 4 h. Subsequently, inhibitor concentrations were added for 72 h, followed by the addition of a 1/10 volume Alamar blue (Trek Diagnostics). Fluorescence was measured after 6 h as described above.

[2] = tested on: NMT (protein myristoylation) in L. donovani amastigotes; type: cell-based; conditions: in-gel fluorescence, varying inhibitor concentrations
LdNMT = LdNMT (Leishmania donovani, UniProt D0AB09); assay: biochemical; conditions: 95% confidence interval in brackets
LdNMT, sequence (D0AB09 entry or part of it): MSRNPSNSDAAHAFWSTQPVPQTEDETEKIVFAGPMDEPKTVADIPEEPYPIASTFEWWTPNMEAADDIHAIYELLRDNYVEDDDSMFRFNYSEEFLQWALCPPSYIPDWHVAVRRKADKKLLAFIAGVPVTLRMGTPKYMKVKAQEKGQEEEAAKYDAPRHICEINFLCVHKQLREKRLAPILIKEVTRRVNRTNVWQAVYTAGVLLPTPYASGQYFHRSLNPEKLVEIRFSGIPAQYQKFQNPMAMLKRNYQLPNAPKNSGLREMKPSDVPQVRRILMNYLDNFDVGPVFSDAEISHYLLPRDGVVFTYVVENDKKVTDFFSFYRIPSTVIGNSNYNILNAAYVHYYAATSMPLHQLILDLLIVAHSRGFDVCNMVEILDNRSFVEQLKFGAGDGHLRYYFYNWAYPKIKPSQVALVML

LmNMT = biological target: T1, LmNMT (Leishmania major, UniProt Q4Q5S8); assay: CPM assay (fluorogenic NMT activity assay), LmNMT; type: biochemical; conditions: 95% confidence interval in brackets; read-out: CPM Assay, IC50 (CI95) LmNMT
T1 sequence (Q4Q5S8 1-421): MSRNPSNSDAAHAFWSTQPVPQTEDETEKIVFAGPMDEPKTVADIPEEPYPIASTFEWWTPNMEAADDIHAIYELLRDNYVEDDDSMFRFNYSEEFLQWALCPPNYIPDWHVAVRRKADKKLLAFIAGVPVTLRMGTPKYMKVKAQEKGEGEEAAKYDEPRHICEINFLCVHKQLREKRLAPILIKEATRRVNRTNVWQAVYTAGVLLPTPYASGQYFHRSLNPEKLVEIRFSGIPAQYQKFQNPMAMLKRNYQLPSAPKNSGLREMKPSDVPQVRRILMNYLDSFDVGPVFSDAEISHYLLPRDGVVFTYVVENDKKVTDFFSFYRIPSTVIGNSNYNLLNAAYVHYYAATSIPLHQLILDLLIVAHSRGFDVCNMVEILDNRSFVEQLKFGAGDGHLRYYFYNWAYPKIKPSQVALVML

L. donovani amastigotes = assay: Alamar blue-based assay, L. donovani amastigotes; type: cell-based; conditions: Leishmania donovani
[3] = tested on: intracellular amastigotes; design: method as in PMID 30380837; conditions: cited from earlier work
HsNMTs = tested on: HsNMTs; design: method as in PMID 30380837; conditions: versus Leishmania major (Lm) NMT; cited from earlier work

Compound | BMDM TC50 [1] | Alamar Blue Assay nAUC [1] | other results
CN1CCC(N(C)c2nc(N(C)CCC#N)c3sccc3n2)CC1 [Compound 1, 3-(Methyl(2-(methyl(1-methylpiperidin-4-yl)amino)thieno[3,2-d]pyrimidin-4-yl)amino)propanenitrile] | >100 µM | 1.07 | effect on myristoylation [2]: significantly decreased myristoylation in a dose-dependent manner
CN(C)CCCN(C)c1nc(N(C)CCC#N)c2sccc2n1 [Compound 2, 3-((2-((3-(Dimethylamino)propyl)(methyl)amino)thieno[3,2-d]pyrimidin-4-yl)(methyl)amino)propanenitrile] | – | – | IC50 (LdNMT; read-out: CPM Assay, IC50 (CI95) LdNMT): 0.59 µM
CN1CCC(N(C)c2nc(N(C)CCC#N)c3ccccc3n2)CC1 [Compound 3, 3-(Methyl(2-(methyl(1-methylpiperidin-4-yl)amino)quinazolin-4-yl)amino)propanenitrile] | >100 µM | 1.04 | –
CN(C)CCCN(C)c1nc(N(C)CCC#N)c2ccccc2n1 [Compound 4, 3-((2-((3-(Dimethylamino)propyl)(methyl)amino)quinazolin-4-yl)(methyl)amino)propanenitrile] | >100 µM | 1.17 | –
CN(CCC#N)c1nc(N(C)C2CCNCC2)nc2ccsc12 [Compound 10, 3-(Methyl(2-(methyl(piperidin-4-yl)amino)thieno[3,2-d]pyrimidin-4-yl)amino)propanenitrile] | >50 µM | 1.05 | –
CCN1CCC(N(C)c2nc(N(C)CCC#N)c3sccc3n2)CC1 [Compound 12, 3-(Methyl(2-(methyl(1-ethylpiperidin-4-yl)amino)thieno[3,2-d]pyrimidin-4-yl)amino)propanenitrile] | >50 µM | 1.05 | –
CN(CCC#N)c1nc(N(C)C2CCNCC2)nc2ccccc12 [Compound 23, 3-(Methyl(2-(methyl(piperidin-4-yl)amino)quinazolin-4-yl)amino)propanenitrile] | >50 µM | – | –
CCN1CCC(N(C)c2nc(N(C)CCC#N)c3ccccc3n2)CC1 [Compound 24, 3-((2-((1-Ethylpiperidin-4-yl)(methyl)amino)quinazolin-4-yl)(methyl)amino)propanenitrile] | >50 µM | – | –
CN1CCC(N(C)c2nc(N(C)CCC#N)c3ccccc3n2)C1 (stereo not shown) [Compound 26, 3-(Methyl(2-(methyl(1-methylpyrrolidin-3-yl)amino)quinazolin-4-yl)amino)propanenitrile] | >50 µM | 1.03 | effect on myristoylation [2]: significantly decreased myristoylation in a dose-dependent manner
CN(CCC#N)c1nc(N(CCCO)C2CCNCC2)nc2ccccc12 [Compound 29, 3-((2-((3-Hydroxypropyl)(piperidin-4-yl)amino)quinazolin-4-yl)(methyl)amino)propanenitrile] | – | – | IC50 (LmNMT): 15 µM and 15.3 µM
CN1CCC(N(CCCO)c2nc(N(C)CCC#N)c3ccccc3n2)CC1 [Compound 30, 3-((2-((3-Hydroxypropyl)(1-methylpiperidin-4-yl)amino)quinazolin-4-yl)(methyl)amino)propanenitrile] | – | – | IC50 (LmNMT): 19 µM and 18.8 µM
CN(C)CCCN(C)c1nc(N(C)CCCO)c2sccc2n1 [Compound 35, 3-((2-((3-(Dimethylamino)propyl)(methyl)amino)thieno[3,2-d]pyrimidin-4-yl)(methyl)amino)propan-1-ol] | >50 µM | – | –
CN(C)CCCN(C)c1nc(N(C)CCC(N)=O)c2sccc2n1 [Compound 36] | >50 µM | – | –
CN(C)CCCN(C)c1nc(N2CCC[C@H]2CO)c2sccc2n1 [Compound 39, (S)-(1-(2-((3-(Dimethylamino)propyl)(methyl)amino)thieno[3,2-d]pyrimidin-4-yl)pyrrolidin-2-yl)methanol] | >50 µM | 1.14 | –
COC[C@@H]1CCCN1c1nc(N(C)C2CCN(C)CC2)nc2ccsc12 [Compound 40, (S)-4-(2-(Methoxymethyl)pyrrolidin-1-yl)-N-methyl-N-(1-methylpiperidin-4-yl)thieno[3,2-d]pyrimidin-2-amine] | >40 µM | 1.06 | –
CN1CCC(N(C)c2nc(N3CCC[C@H]3CC#N)c3sccc3n2)CC1 [Compound 43, (S)-2-(1-(2-(Methyl(1-methylpiperidin-4-yl)amino)thieno[3,2-d]pyrimidin-4-yl)pyrrolidin-2-yl)acetonitrile] | >50 µM | 1.08 | –
CCN(C)c1nc(N(C)C2CCN(C)CC2)nc2ccsc12 [Compound 46, N^4-Ethyl-N^2,N^4-dimethyl-N^2-(1-methylpiperidin-4-yl)thieno[3,2-d]pyrimidine-2,4-diamine] | >50 µM | 1.05 | –
CCN(C)c1nc(N(C)C2CCNCC2)nc2ccsc12 [Compound 47, N^4-Ethyl-N^2,N^4-dimethyl-N^2-(piperidin-4-yl)thieno[3,2-d]pyrimidine-2,4-diamine] | >50 µM | – | –
CN1CCC(N(C)c2nc(N(C)CCC#N)c3sc(C(C)(C)C)cc3n2)CC1 [Compound 50, 3-((6-(tert-Butyl)-2-(methyl(1-methylpiperidin-4-yl)amino)thieno[3,2-d]pyrimidin-4-yl)(methyl)amino)propanenitrile] | – | – | EC50 (L. donovani amastigotes; extracellular L. donovani amastigotes (Table S2), read-out: Ld Amastigotes EC50 (CI05)): 10.1 µM; EC50 (L. donovani amastigotes; intracellular L. donovani amastigotes, read-out: Alamar Blue Assay EC50 (CI95)): 10 µM
CN(C)CCCN(C)c1nc(N(C)CCC#N)c2sc(C(C)(C)C)cc2n1 [Compound 51, 3-((6-(tert-Butyl)-2-((3-(dimethylamino)propyl)(methyl)amino)thieno[3,2-d]pyrimidin-4-yl)(methyl)amino)propanenitrile] | 27.3 (24.1-31.0) μM | – | –
CN1CCC(N(C)c2nc(N(C)CCC#N)c3sc(C(C)(C)C)cc3n2)C1 (stereo not shown) [Compound 52, 3-((6-(tert-Butyl)-2-(methyl(1-methylpyrrolidin-3-yl)amino)thieno[3,2-d]pyrimidin-4-yl)(methyl)amino)propanenitrile] | >40 µM | – | –
CN(CCC#N)c1nc(N(C)C2CCNC2)nc2cc(C(C)(C)C)sc12 (stereo not shown) [Compound 53, 3-((6-(tert-Butyl)-2-(methyl(pyrrolidin-3-yl)amino)thieno[3,2-d]pyrimidin-4-yl)(methyl)amino)propanenitrile] | >40 µM | – | –
CN(C)CCCN(C)c1nc(N(C)CCC#N)c2cc(Br)ccc2n1 [Compound 56, 3-((6-Bromo-2-((3-(dimethylamino)propyl)(methyl)amino)quinazolin-4-yl)(methyl)amino)propanenitrile] | >40 µM | 1.3 and 1.28 | –
CCN(C)c1nc(N(C)C2CCNCC2)nc2ccc(S(=O)(=O)Nc3c(C)nn(C)c3C)cc12 [Compound 65, 4-(Ethyl(methyl)amino)-2-(methyl(piperidin-4-yl)amino)-N-(1,3,5-trimethyl-1H-pyrazol-4-yl)quinazoline-6-sulfonamide] | – | – | IC50 (LdNMT; CPM Assay, IC50 (CI95) LdNMT): 0.33 µM
Cc1nn(C)c(C)c1N(C(F)F)S(=O)(=O)c1c(Cl)cc(CCCC2CCN(C)CC2)cc1Cl [DDD100097] | – | – | EC50 [3]: 2.4 µM; selectivity over HsNMTs (HsNMTs): 10 fold
